Values of other authors, collected in US20050287177A1, “Pharmaceutical compositions” (Glaxo Group Unlimited and Smithkline Beecham Corp., priority 2002, published 2005).

Assays:
[1] = elimination
[2] = colon versus small intestine

terminal half-life [1]: 1.5 to 2 h
colonic absorption [2]: very low
Compound: Cc1cn([C@H]2C[C@H](N=[N+]=[N-])[C@@H](CO)O2)c(=O)[nH]c1=O [Zidovudine, 3′-azido-3′-deoxythymidine]
